Test [1] deals with T1, CYP11B2 (aldosterone synthase) (Homo sapiens, UniProt P19099).
T1 construct: the NCI-H295R cells have CYP11B2 (aldosterone synthase) and CYP11B1 (steroid 11-hydroxylase); host or cells: NCI-H295R
T1 sequence (P19099 25-503): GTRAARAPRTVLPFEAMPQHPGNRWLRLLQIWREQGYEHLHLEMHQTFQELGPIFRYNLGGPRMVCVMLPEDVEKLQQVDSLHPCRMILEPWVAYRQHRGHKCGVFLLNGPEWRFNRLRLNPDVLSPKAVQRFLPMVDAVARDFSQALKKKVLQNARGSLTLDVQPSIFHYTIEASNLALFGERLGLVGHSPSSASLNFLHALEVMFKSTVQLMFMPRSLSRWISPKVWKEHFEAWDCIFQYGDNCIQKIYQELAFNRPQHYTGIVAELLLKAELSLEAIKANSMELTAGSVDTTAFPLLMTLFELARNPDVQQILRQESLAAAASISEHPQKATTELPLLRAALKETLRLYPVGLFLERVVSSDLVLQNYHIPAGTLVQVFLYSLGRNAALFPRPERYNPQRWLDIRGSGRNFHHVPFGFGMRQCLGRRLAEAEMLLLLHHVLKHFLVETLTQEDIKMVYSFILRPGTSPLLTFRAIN
The experiment in a line: Inhibition of aldosterone secretion in NCI-H295R cells. The test is classed as cell-based. As to conditions: human adrenocortical carcinoma NCI-H295R cells, 24 hours with cell stimulant. An excerpt:
(§1) The activities of a compound according to the present invention can be assessed by the following in vitro method well-described in the art.
(§2) In particular, the inhibition of aldosterone and cortisol secretion in vitro can be determined by the following assay.
(§3) The cell line NCI-H295R was originally isolated from an adrenocortical carcinoma and has been characterized in the literature through the stimulable secretion of steroid hormones and the presence of the enzymes essential for steroidogenesis. The cells show the physiological property of zonally undifferentiated human foetal adrenocortical cells which, however, have the capacity to produce the steroid hormones which are formed in the three phenotypically distinguishable zones in the adult adrenal cortex. Thus, the NCI-H295R cells have CYP11B2 (aldosterone synthase) and CYP11B1 (steroid 11-hydroxylase).
(§4) The human adrenocortical carcinoma NCI-H295R cell line is obtained from American Type Culture Collection (Manassas, Va.). Insulin/transferrin/selenium (ITS)-A supplement (100×), DMEM/F-12, antibiotic/antimycotic (100×), and fetal calf serum (FCS) are purchased from Invitrogen (Carlsbad, Calif.). Anti-mouse PVT scintillation proximity assay (SPA) beads and NBS 96-well plates are obtained from Amersham (Piscataway, N.J.) and Corning (Acton, Mass.), respectively. Clear bottom 96-well flat bottom plates are purchased from Costar (Corning, N.Y.). Aldosterone and angiotensin (Ang II) are purchased from Sigma (St. Louis, Mo.). D[1,2,6,7-3H(N)]aldosterone and [1,2,6,7-3H(N)]cortisol are acquired from PerkinElmer (Boston, Mass.). Nu-serum is a product of BD Biosciences (Franklin Lakes, N.J.).
(§5) For in vitro measurement of aldosterone and cortisol activity, human adrenocortical carcinoma NCI-H295R cells are seeded in NBS 96-well plates at a density of 25,000 cells/well in 100 μL of a growth medium containing DMEM/F12 supplemented with 10% FCS, 2.5% Nu-serum, 1 μg ITS/ml, and 1× antibiotic/antimycotic. The medium is changed after culturing for 3 days at 37° C. under an atmosphere of 5% CO2/95% air. On the following day, cells are rinsed with 100 μL of DMEM/F12 and incubated in quadruplicate wells at 37° C. for 24 hours with 100 μL of treatment medium containing a cell stimulant and a compound at different concentrations. […] Cell stimulants which can be used are angiotensin-II (1 micromolar), potassium ions (16 millimolar), forskolin (10 micromolar) or a combination of two stimulants. At the end of incubation, the excretion of aldosterone and cortisol into the culture medium can be detected and quantified by commercially available, specific monoclonal antibodies in radioimmunoassays in accordance with the manufacturer's instructions.
(§6) Measurement of aldosterone can also be performed using a 96-well plate format. Each test sample is incubated with 0.02 μCi of D[1,2,6,7-3H(N)]aldosterone and 0.3 μg of anti-aldosterone antibody in phosphate-buffered saline (PBS) containing 0.1% Triton X-100, 0.1% bovine serum albumin, and 12% glycerol in a total volume of 200 μL at room temperature for 1 hour. Anti-mouse PVT SPA beads (50 μL) are then added to each well and incubated overnight at room temperature prior to counting in a Microbeta plate counter. The amount of aldosterone in each sample is calculated by comparing with a standard curve generated using known quantities of the hormone. Measurement of cortisol can be performed in a manner similar to that of aldosterone, except that [1,2,6,7-3H(N)]cortisol is used.
(§7) Inhibition of the release of a steroid can be used as a measure of the respective enzyme inhibition by the added test compounds. The dose-dependent inhibition of enzymatic activity by a compound is calculated by means of an inhibition plot which is characterized by an IC50. […] The inhibition plot is calculated by fitting a 4-parameter logistic function to the raw data points using the least squares method.

The target of test [2] is T2, CYP11B1 (steroid 11-hydroxylase) (Homo sapiens, UniProt P15538).
T2 construct: the NCI-H295R cells have CYP11B2 (aldosterone synthase) and CYP11B1 (steroid 11-hydroxylase); host or cells: NCI-H295R
T2 sequence (P15538 25-503): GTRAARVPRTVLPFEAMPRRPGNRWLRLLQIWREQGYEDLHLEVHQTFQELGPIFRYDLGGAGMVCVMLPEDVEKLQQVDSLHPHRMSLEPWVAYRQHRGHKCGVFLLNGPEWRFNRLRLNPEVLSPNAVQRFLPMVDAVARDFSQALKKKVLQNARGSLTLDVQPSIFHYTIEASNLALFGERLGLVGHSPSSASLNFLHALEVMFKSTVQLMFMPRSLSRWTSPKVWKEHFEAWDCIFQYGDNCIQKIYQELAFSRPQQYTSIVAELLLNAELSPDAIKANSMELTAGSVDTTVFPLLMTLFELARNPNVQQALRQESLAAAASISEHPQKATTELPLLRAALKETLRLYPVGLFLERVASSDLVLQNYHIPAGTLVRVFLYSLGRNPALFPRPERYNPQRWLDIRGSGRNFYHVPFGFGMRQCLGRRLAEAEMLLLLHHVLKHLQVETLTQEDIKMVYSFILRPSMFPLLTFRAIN
The experiment in a line: Inhibition of cortisol secretion in NCI-H295R cells. The format is cell-based. The conditions noted are these: human adrenocortical carcinoma NCI-H295R cells, 24 hours with cell stimulant.
Excerpt: as §1, §2, §3, §4, §5, §6, §7

Usually IC50 stands for the concentration that gives 50% inhibition.

Where a name gives a salt, the structure may show the parent alone.

Consider `Cc1c(-c2cccnc2)n(Cc2ccc(C(=O)O)cc2)c2cccc(F)c12` [Example 33, 4-(4-Fluoro-3-methyl-2-pyridin-3-yl-1H-indol-1-ylmethyl)-benzoic acid], for which the IC50 in test [1] was found to be 14 nM; in test [2] it was 662 nM.
The like results for `CCS(=O)(=O)N(C)c1cncc(-c2cc3ccccc3n2C)c1` [Example 231, Ethanesulfonic acid methyl-[5-(1-methyl-1H-indol-2-yl)-pyridin-3-yl]-amide] were, in that order, 2 nM and 51 nM.
Turning to `CCS(=O)(=O)NCc1cncc(-c2c(C)c3ccccc3n2C)c1` [Example 237, N-((5-(1,3-Dimethyl-1H-indol-2-yl)pyridin-3-yl)methyl)ethanesulfonamide], the figures for the IC50 in test [1] and in test [2] were 5 nM and 1610 nM, respectively.
The like results for `Cc1c(-c2cccnc2)n(Cc2cccc(C#N)c2)c2cc(F)ccc12` [Example 15, 3-(6-Fluoro-3-methyl-2-pyridin-3-yl-1H-indol-1-ylmethyl)-benzonitrile hydrochloride] were, in that order, 27 nM and 447 nM.

The record behind these values is patent US8791141B2, “Organic compounds” (Novartis AG, priority 2008, dated 2014).
